Calls of active or inactive are those of the source. The calls are words filed in the database; no cut-off is given here.

The text below walks through data of ChEMBL document CHEMBL3871290, “3-Cyano-6-(5-methyl-3-pyrazoloamino) pyridines (Part 2): A dual inhibitor of Aurora kinase and tubulin polymerization” (Bioorg Med Chem Lett, 2016).

Data set [1] relates to HCT-116. As to the kind of experiment: Antitumor activity against human HCT116 cells xenografted subcutaneously in mouse assessed as tumor growth inhibition at 100 mg/kg, po qd after 14 days. In kind it is functional, organism-based. On the technique in general: A xenograft is tissue or cells of one species grown in another, often human tumour cells in immunodeficient mice.

For data set [2], the system named is HCT-116. As to the kind of experiment: Antitumor activity against human HCT116 cells xenografted subcutaneously in mouse assessed as tumor growth inhibition at 30 mg/kg, po qd after 14 days. It counts as functional.
The test system of data set [3] is Cc1ccc(OCCNc2nc(Nc3cc(C)[nH]n3)cc(C)c2C#N)cn1. As to conditions: Homo sapiens.
Description: Activity at cSRC (unknown origin)
The test system is the same in data set [4]. As to conditions: Homo sapiens. The source holds these as a separate data set.
Description: Activity at YES (unknown origin)
The species entered for another data set is Homo sapiens. As to the kind of experiment: Inhibition of Aurora kinase (unknown origin) assessed as reduction in histone H3 phosphorylation at Ser10 residue.
The species entered for a further data set is Sus scrofa. As to the kind of experiment: Inhibition of pig brain tubulin polymerization at 10 uM in presence of GTP relative to control.

Tyrosine-protein kinase Yes (Homo sapiens), P07947, sequence (P07947 whole entry): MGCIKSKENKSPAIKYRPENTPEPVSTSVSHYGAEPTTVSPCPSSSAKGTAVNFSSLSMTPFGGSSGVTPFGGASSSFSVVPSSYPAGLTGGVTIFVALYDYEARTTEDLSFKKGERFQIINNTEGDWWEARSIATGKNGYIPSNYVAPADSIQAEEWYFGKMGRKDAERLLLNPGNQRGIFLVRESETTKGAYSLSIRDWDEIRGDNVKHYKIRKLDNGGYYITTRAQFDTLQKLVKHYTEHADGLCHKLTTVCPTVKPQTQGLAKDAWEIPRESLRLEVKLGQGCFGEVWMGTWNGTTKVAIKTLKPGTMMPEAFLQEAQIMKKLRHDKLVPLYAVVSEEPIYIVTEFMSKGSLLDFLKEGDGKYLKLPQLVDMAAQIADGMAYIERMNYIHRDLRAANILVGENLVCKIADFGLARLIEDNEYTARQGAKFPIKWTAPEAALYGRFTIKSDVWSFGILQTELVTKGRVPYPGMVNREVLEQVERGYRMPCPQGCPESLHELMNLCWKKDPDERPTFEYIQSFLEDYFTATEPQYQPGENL

Usually TGI stands for the reduction of tumour growth relative to the control group. Regarding `Cc1cc(Nc2cc(N3CCN(C)CC3)nc(Sc3ccc(NC(=O)C4CC4)cc3)n2)n[nH]1`, the TGI in the data set with HCT-116 [1] turned out to be 68%; in the data set on HCT-116 [2], 60%.

In general, Km refers to the concentration of substrate that gives half-maximal velocity. Take “Proto-oncogene tyrosine-protein kinase Src (Homo sapiens) (from UniProt P12931)”: the Km in data set [3] was 200 µM.

Take “Tyrosine-protein kinase Yes (Homo sapiens), P07947”: the Km in data set [4] came out at 45 µM.

What is called inhibition is how much of the control response was suppressed. For the compound `Cc1ccc(OCCNc2nc(Nc3cc(C)[nH]n3)cc(C)c2C#N)cn1`, the inhibition result in the data set filed under Homo sapiens is “Active”. Also, the inhibition in the data set filed under Sus scrofa stood at 63%.
